Assays:
anti-digoxin antibodies [1] = assay: TDx Abbott Digoxin II assay, antigenicity (cross-reactivity) of cardiac glycoside analogs; type: binding; settings: TDx analyzer, aqueous solutions in TDx dilution buffer, observed assay concentration divided by actual analog concentration times 100
Protocol: (§1) The antigencity of cardiac glycoside analogs was first determined using the TDx@ analyzer and the Abbott Digoxin II assay commercially available from Abbott Laboratories, Abbott Park, Il 60064. Analogs were evaluated as aqueous solutions in TDx dilution buffer. Several analogs were also subsequently evaluated using the new digoxin assay described herein (see generally Example IV) using a ouabain triacetate solid phase prepared in accordance with Example IIB. Analogs evaluated were: [drawing 3] wherein R1 =R2 =R3 =Ac, X=O, Y1, Z1 and Y2, Z2 =a bond connecting the two carbon atoms to which they are attached (A); R1 =R2 =R3 =Ac, X=O, Y1 =OH, Z1 =H, Y2 and Z2 =a bond connecting the two carbon atoms to which they are attached (B); R1 =R2 =R3 =Ac, X=O, Y1 =Y2 =OH, Z1 =Z2 =H (C); and R1 =R2 =R3 =H, X=N, Y1 =Y2 =OH, Z1 =Z2 =H (D). Cross-reactivity was defined as the observed assay concentration divided by the actual analog concentration times 100.

[2] = tested on: β-galactosidase-labeled F(ab')2 (anti-digoxin); assay: New digoxin assay (ouabain triacetate solid phase), cross-reactivity of analogs; type: binding, Rabbit; settings: new digoxin assay using ouabain triacetate solid phase; observed assay concentration divided by actual analog concentration times 100
Protocol: as §1

anti-digoxin antibodies [3] = settings: known compounds for immobilization (background); cited from earlier work
[4] = tested on: β-galactosidase-labeled F(ab')2; assay: Non-competitive assay for digoxin in serum with immobilized ouabain triacetate solid phase (standard curve)
Protocol: The general assay format consists of preincubation of excess β-galactosidase-labeled F(ab')2 (Example II A) with sample such that sample is quantitatively and rapidly bound to form an analyte-β-galactosidase-labeled F(ab')2 conjugate. An aliquot of this mixture is transferred to a vessel containing a ouabain triacetate-albumin-trisacryl solid phase prepared in accordance with procedure of Example II B and having a characteristic density to be easily suspended in solution yet sufficiently dense to rapidly sediment by gravity. The solid phase material rapidly captures the excess unconjugated β-galactosidase-labeled F(ab')2 and sediments. Following the capture reaction and sedimentation an aliguot containing analyte-β-galactosidase-labeled F(ab')2 is transfered to a cuvette for quantitation using a fluorogenic substrate.
Serum solutions containing 0, 0.5, 1.0, 2.0, 3.0 and 5.0 nanograms per milliliter of digoxin were each tested following the same assay protocol described below. A control was also run with zero digoxin and no solid phase material. Fifty microliters of serum sample was mixed with 25 microliters of the β-galactosidase-labeled F(ab')2 (Example II A) and 325 microliters of TDx dilution buffer. The reaction mixture was incubated at 34-35 degrees Celsius for 6 minutes and then a 60 microliter aliquot and 55 microliters of TDx dilution buffer was added to 10 mg of solid phase material (Example II B). The mixture was incubated for 10 minutes with mixing. 400 ul of TDx dilution buffer was then added to the mixture.
The mixture was allowed to rest briefly whereupon it separated into a liquid and solid phase. The β-galactosidase activity of the supernatant was measured by quantitating the production of fluorescein. The measurement was made using 10 micromolar di-(β-D-galactosyl)-fluorescein as substrate in TDx dilution buffer containing 1 mM MgCl2.

| Compound | CROSS-REACTIVITY (%) DIGOXIN II (anti-digoxin antibodies [1]) | CROSS-REACTIVITY (%) NEW ASSAY [2] | other results |
| --- | --- | --- | --- |
| CC1OC(OC2C(O)CC(OC3C(O)CC(OC4CCC5(C)C(CCC6C5CC(O)C5(C)C(C7=CC(=O)NC7)CCC65O)C4)OC3C)OC2C)CC(O)C1O (centres unmarked) [Digoxin Lactam] | 0.41% |  |  |
| CC(=O)OCC12C(OC(C)=O)CC(OC3OC(C)C(O)C(O)C3O)CC1(O)CCC1C2C(OC(C)=O)CC2(C)C(C3=CC(=O)OC3)CCC12O (centres unmarked) [Ouabain Triacetate (C)] | 3.7 × 10^-4% | 2.2 × 10^-4% |  |
| CC(=O)OCC12C(OC(C)=O)CC(OC3OC(C)C(O)C(O)C3O)CC1(O)CCC1C3=CCC(C4=CC(=O)OC4)C3(C)CC(OC(C)=O)C12 (centres unmarked) [Ouabain Triacetate (B)] | 1.5 × 10^-3% |  |  |
| C[C@H]1O[C@@H](O[C@H]2[C@@H](O)C[C@H](O[C@H]3[C@@H](O)C[C@H](O[C@H]4CC[C@@]5(C)[C@H](CC[C@@H]6[C@@H]5C[C@@H](O)[C@]5(C)[C@@H](C7=CC(=O)OC7)CC[C@]65O)C4)O[C@@H]3C)O[C@@H]2C)C[C@H](O)[C@@H]1O [Digoxin] | 100% | 100% | affinity for labeled anti digoxin antibody, in words (anti-digoxin antibodies [3]): relatively high affinity; Fluorescence Measured Rate ([4]; digoxin 0.5 ng/mL in serum): 160; Fluorescence Measured Rate ([4]; digoxin 1.0 ng/mL in serum): 220; Fluorescence Measured Rate ([4]; digoxin 2.0 ng/mL in serum): 448; Fluorescence Measured Rate ([4]; digoxin 3.0 ng/mL in serum): 745; Fluorescence Measured Rate ([4]; digoxin 5.0 ng/mL in serum): 1231 |
| C[C@@H]1O[C@@H](O[C@H]2C[C@@H](O)[C@]3(CO)[C@H]4[C@H](O)C[C@]5(C)[C@@H](C6=CC(=O)OC6)CC[C@]5(O)[C@@H]4CC[C@]3(O)C2)[C@H](O)[C@H](O)[C@H]1O [Ouabain] | 2.0 × 10^-2% | 1.8 × 10^-3% | affinity for labeled anti digoxin antibody, in words (anti-digoxin antibodies [3]): relatively high affinity |
| CC1OC(OC2CC(O)C3(CO)C4C(O)CC5(C)C(C6=CC(=O)NC6)CCC5(O)C4CCC3(O)C2)C(O)C(O)C1O (centres unmarked) [Ouabain Lactam (D)] | 9.1 × 10^-4% |  |  |
| CC(=O)OCC12C(=CCC3C4=CCC(C5=CC(=O)OC5)C4(C)CC(OC(C)=O)C31)CC(OC1OC(C)C(O)C(O)C1O)CC2OC(C)=O (centres unmarked) [Ouabain Triacetate (A)] | 1.6 × 10^-3% |  |  |

From patent publication US4788136A, “Diagnostic immunoassay by solid phase separation for digoxin” (priority 1987, dated 1988)
